Measurements: patent EP0268871A1, “Quinoline derivatives” (priority 1986, dated 1988)

Biological target: acetylcholinesterase (Homo sapiens, UniProt P22303)
Experiment: Determination of inhibitory activity against acetylcholinesterase (photometric method of Ellman et al.)
Format: biochemical
Details: Relative ratio = IC50 (molar) of Tacrine / IC50 (molar) of test compound; IC50 = concentration of drug which inhibits 50% level of control
Description: Determination of inhibitory activity against acetylcholinesterase
The inhibitory activity against acetylchalinesterase of the compounds provided with the present invention was determined by the photometric methods described in Ellman et al., Biochemical Pharmacology, Vol. 7, p.

Chain of acetylcholinesterase (P22303 32-614): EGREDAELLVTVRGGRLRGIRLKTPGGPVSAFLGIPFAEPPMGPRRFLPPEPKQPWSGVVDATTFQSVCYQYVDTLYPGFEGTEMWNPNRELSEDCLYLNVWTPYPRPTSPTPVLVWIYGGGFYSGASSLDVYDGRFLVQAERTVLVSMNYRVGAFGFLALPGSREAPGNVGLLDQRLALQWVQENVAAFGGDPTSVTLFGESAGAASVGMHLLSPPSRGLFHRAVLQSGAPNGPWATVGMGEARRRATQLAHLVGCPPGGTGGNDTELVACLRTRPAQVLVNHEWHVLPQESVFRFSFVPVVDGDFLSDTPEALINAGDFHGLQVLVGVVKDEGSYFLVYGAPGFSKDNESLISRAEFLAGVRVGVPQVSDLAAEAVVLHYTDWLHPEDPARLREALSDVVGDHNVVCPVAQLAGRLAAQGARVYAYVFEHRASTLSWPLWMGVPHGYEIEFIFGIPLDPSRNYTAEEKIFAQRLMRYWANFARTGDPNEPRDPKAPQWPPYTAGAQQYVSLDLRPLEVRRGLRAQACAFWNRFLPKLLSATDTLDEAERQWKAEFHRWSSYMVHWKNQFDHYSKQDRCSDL

SMILES	Acetylcholinesterase Inhibition (reative ratio*)
Nc1c2c(nc3cc(F)ccc13)CCCC2 [Example 2, 9-amino-6-fluoro-1,2,3,4-tetrahydroacridine]	2.53
Nc1c2c(nc3cccc(F)c13)CCC2 [Example 6]	1.75
Cc1cccc2nc3c(c(N)c12)CC(C)C3 (centres unmarked) [Example 14]	1.27
Nc1c2c(nc3cc(Cl)ccc13)C1C=CC2CC1 (centres unmarked) [Example 94]	2.22
Nc1c2c(nc3cc(C(F)(F)F)ccc13)CCCC2 [compound 36]	1.15
Nc1c2c(nc3cc(F)c(F)cc13)CCCCC2 [compound 38]	2.04
Cc1cccc2nc3c(c(N)c12)CSCC3 [compound 112]	1.30
Nc1c2c(nc3cccc(F)c13)CSCC2 [compound 118]	3.13
Nc1c2c(nc3cccc(Cl)c13)CSCC2 [compound 149]	4.12
Nc1c2c(nc3c(F)cccc13)CCCCC2 [compound 156]	2.50
Nc1c2c(nc3cccc(F)c13)CCCC2 [compound 157]	3.60
